Laboratory results as given in patent US20260166128A1, “HUMAN AMYLIN ANALOG, AND DERIVATIVE THEREOF AND USE THEREOF” (priority 2022, published 2026).
Numbered stars: 1 amine (or outer) side, 2 acyl side, 3 side chain; on linkers, the order of the positions; unused ones are H or OH. Bridge positions count the residues as written; N and C are the ends. Square brackets hold non-standard residues; d marks the D form. Side chains are listed from the residue outwards. Peptide text beside a SMILES is read from it. * marks the point of attachment. C20 diacid = O=C(O)CCCCCCCCCCCCCCCCCCC(=O)*; C18 diacid = O=C(O)CCCCCCCCCCCCCCCCC(=O)*; γGlu = O=C(O)[C@H](CCC(=O)[*:2])N[*:1]; Hyp = O=C(O)[C@@H]1C[C@@H](O)CN1; AEEA = NCCOCCOCC(=O)O

Biological target: T1, human amylin receptor (Homo sapiens, UniProt O60896+P30988)
T1 construct: host or cells: CHO-K1/Ga15/AMY3 cells, further stably transfected with a CRE-luciferase plasmid
T1 sequence (P30988 25-474): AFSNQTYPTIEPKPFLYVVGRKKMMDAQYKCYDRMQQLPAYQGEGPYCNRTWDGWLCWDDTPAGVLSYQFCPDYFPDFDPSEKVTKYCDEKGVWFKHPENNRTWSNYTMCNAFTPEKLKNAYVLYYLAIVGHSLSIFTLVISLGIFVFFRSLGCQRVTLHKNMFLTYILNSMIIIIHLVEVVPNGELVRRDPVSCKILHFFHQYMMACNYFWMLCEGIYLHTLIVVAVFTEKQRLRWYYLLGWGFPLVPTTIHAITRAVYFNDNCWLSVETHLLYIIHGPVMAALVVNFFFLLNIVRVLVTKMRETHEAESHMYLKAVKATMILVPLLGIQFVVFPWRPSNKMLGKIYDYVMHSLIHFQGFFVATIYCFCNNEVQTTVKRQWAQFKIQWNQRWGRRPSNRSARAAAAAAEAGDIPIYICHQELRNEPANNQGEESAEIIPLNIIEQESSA
T1 sequence (O60896 24-148 partner): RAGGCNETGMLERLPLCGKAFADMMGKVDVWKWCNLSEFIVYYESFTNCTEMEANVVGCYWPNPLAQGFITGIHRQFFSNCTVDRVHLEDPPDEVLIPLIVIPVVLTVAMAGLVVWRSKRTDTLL
Experiment: Luciferase assay of amylin derivatives in amylin receptor/CRE-luc CHO cell line
Type: cell-based
Conditions: CHO-K1/Ga15/AMY3 CRE-luc cells, 24 hours incubation, F12 medium containing 10% FBS; read-out: EC50
Procedure: The experiment was intended to detect the activity or efficacy of the amylin derivatives on a human amylin receptor in vitro by luciferase assay.
50 μL of growth medium (F12 medium containing 10% FBS) was added into each well of a white 96-well plate, and the stably transfected amylin/CRE-lue CHO cells were inoculated into the white 96-well plate at a density of about 20,000 cells/well for activity determination.

Structure (SMILES) | EC50
CC[C@H](C)[C@H](NC(=O)[C@@H]1CCCN1C(=O)CNC(=O)[C@H](CCCCNC(=O)COCCOCCNC(=O)COCCOCCNC(=O)CC[C@H](NC(=O)CCCCCCCCCCCCCCCCC(=O)O)C(=O)O)NC(=O)[C@H](CC(N)=O)NC(=O)[C@H](CC(N)=O)NC(=O)[C@H](CO)NC(=O)[C@H](CO)NC(=O)[C@H](Cc1c[nH]cn1)NC(=O)[C@H](CCCNC(=N)N)NC(=O)[C@H](CC(C)C)NC(=O)[C@H](Cc1ccccc1)NC(=O)[C@H](CC(=O)O)NC(=O)[C@H](C)NC(=O)[C@H](CC(C)C)NC(=O)[C@H](CCCNC(=N)N)NC(=O)[C@H](CCC(N)=O)NC(=O)[C@@H](NC(=O)[C@H](C)NC(=O)[C@@H]1CSSC[C@H](NC(=O)[C@@H](N)CCCNC(=N)N)C(=O)N[C@@H](CC(N)=O)C(=O)N[C@@H]([C@@H](C)O)C(=O)N[C@@H](C)C(=O)N[C@@H]([C@@H](C)O)C(=O)N1)[C@@H](C)O)C(=O)N[C@@H](CC(C)C)C(=O)N1CCC[C@H]1C(=O)N1CCC[C@H]1C(=O)N[C@H](C(=O)N[C@@H](CC(N)=O)C(=O)N[C@H](C(=O)NCC(=O)N[C@@H](CO)C(=O)N[C@@H](CC(N)=O)C(=O)N[C@H](C(=O)N1C[C@H](O)C[C@H]1C(N)=O)[C@@H](C)O)C(C)C)[C@@H](C)O [PD085] (H-RCNTATCATQRLADFLRHSSNNK([AEEA-AEEA-γGlu-C18 diacid])GPILPPTNVGSNT[Hyp]-NH2; disulfide 2-7) | 0.005 nM
CC[C@H](C)[C@H](NC(=O)[C@@H]1CCCN1C(=O)CNC(=O)[C@H](CC(C)C)NC(=O)[C@H](CCCCNC(=O)CC[C@H](NC(=O)CCCCCCCCCCCCCCCCCCC(=O)O)C(=O)O)NC(=O)[C@H](CC(N)=O)NC(=O)[C@H](CO)NC(=O)[C@H](CO)NC(=O)[C@H](Cc1c[nH]cn1)NC(=O)[C@H](CCCNC(=N)N)NC(=O)[C@H](CC(C)C)NC(=O)[C@H](Cc1ccccc1)NC(=O)[C@H](CC(=O)O)NC(=O)[C@H](C)NC(=O)[C@H](CC(C)C)NC(=O)[C@H](CCCNC(=N)N)NC(=O)[C@H](CCC(N)=O)NC(=O)[C@@H](NC(=O)[C@H](C)NC(=O)[C@@H]1CSSC[C@H](NC(=O)[C@@H](N)CCCNC(=N)N)C(=O)N[C@@H](CC(N)=O)C(=O)N[C@@H]([C@@H](C)O)C(=O)N[C@@H](C)C(=O)N[C@@H]([C@@H](C)O)C(=O)N1)[C@@H](C)O)C(=O)N[C@@H](CC(C)C)C(=O)N1CCC[C@H]1C(=O)N1CCC[C@H]1C(=O)N[C@H](C(=O)N[C@@H](CC(N)=O)C(=O)N[C@H](C(=O)NCC(=O)N[C@@H](CO)C(=O)N[C@@H](CC(N)=O)C(=O)N[C@H](C(=O)N1C[C@H](O)C[C@H]1C(N)=O)[C@@H](C)O)C(C)C)[C@@H](C)O [PD086] (H-RCNTATCATQRLADFLRHSSNK([γGlu-C20 diacid])LGPILPPTNVGSNT[Hyp]-NH2; disulfide 2-7) | 0.033 nM
CC[C@H](C)[C@H](NC(=O)[C@@H]1CCCN1C(=O)CNC(=O)[C@H](CC(C)C)NC(=O)[C@H](CCCCNC(=O)COCCOCCNC(=O)COCCOCCNC(=O)CC[C@H](NC(=O)CCCCCCCCCCCCCCCCC(=O)O)C(=O)O)NC(=O)[C@H](CC(N)=O)NC(=O)[C@H](CO)NC(=O)[C@H](CO)NC(=O)[C@H](Cc1c[nH]cn1)NC(=O)[C@H](CCCNC(=N)N)NC(=O)[C@H](CC(C)C)NC(=O)[C@H](Cc1ccccc1)NC(=O)[C@H](CC(=O)O)NC(=O)[C@H](C)NC(=O)[C@H](CC(C)C)NC(=O)[C@H](CCCNC(=N)N)NC(=O)[C@H](CCC(N)=O)NC(=O)[C@@H](NC(=O)[C@H](C)NC(=O)[C@@H]1CSSC[C@H](NC(=O)[C@@H](N)CCCNC(=N)N)C(=O)N[C@@H](CC(N)=O)C(=O)N[C@@H]([C@@H](C)O)C(=O)N[C@@H](C)C(=O)N[C@@H]([C@@H](C)O)C(=O)N1)[C@@H](C)O)C(=O)N[C@@H](CC(C)C)C(=O)N1CCC[C@H]1C(=O)N1CCC[C@H]1C(=O)N[C@H](C(=O)N[C@@H](CC(N)=O)C(=O)N[C@H](C(=O)NCC(=O)N[C@@H](CO)C(=O)N[C@@H](CC(N)=O)C(=O)N[C@H](C(=O)N1C[C@H](O)C[C@H]1C(N)=O)[C@@H](C)O)C(C)C)[C@@H](C)O [PD089] (H-RCNTATCATQRLADFLRHSSNK([AEEA-AEEA-γGlu-C18 diacid])LGPILPPTNVGSNT[Hyp]-NH2; disulfide 2-7) | 0.018 nM
CC[C@H](C)[C@H](NC(=O)[C@@H]1CCCN1C(=O)CNC(=O)[C@H](CC(C)C)NC(=O)[C@H](CC(N)=O)NC(=O)[C@H](CCCCNC(=O)CC[C@H](NC(=O)CCCCCCCCCCCCCCCCCCC(=O)O)C(=O)O)NC(=O)[C@H](CO)NC(=O)[C@H](CO)NC(=O)[C@H](Cc1c[nH]cn1)NC(=O)[C@H](CCCNC(=N)N)NC(=O)[C@H](CC(C)C)NC(=O)[C@H](Cc1ccccc1)NC(=O)[C@H](CC(=O)O)NC(=O)[C@H](C)NC(=O)[C@H](CC(C)C)NC(=O)[C@H](CCCNC(=N)N)NC(=O)[C@H](CCC(N)=O)NC(=O)[C@@H](NC(=O)[C@H](C)NC(=O)[C@@H]1CSSC[C@H](NC(=O)[C@@H](N)CCCNC(=N)N)C(=O)N[C@@H](CC(N)=O)C(=O)N[C@@H]([C@@H](C)O)C(=O)N[C@@H](C)C(=O)N[C@@H]([C@@H](C)O)C(=O)N1)[C@@H](C)O)C(=O)N[C@@H](CC(C)C)C(=O)N1CCC[C@H]1C(=O)N1CCC[C@H]1C(=O)N[C@H](C(=O)N[C@@H](CC(N)=O)C(=O)N[C@H](C(=O)NCC(=O)N[C@@H](CO)C(=O)N[C@@H](CC(N)=O)C(=O)N[C@H](C(=O)N1C[C@H](O)C[C@H]1C(N)=O)[C@@H](C)O)C(C)C)[C@@H](C)O [PD090] (H-RCNTATCATQRLADFLRHSSK([γGlu-C20 diacid])NLGPILPPTNVGSNT[Hyp]-NH2; disulfide 2-7) | 0.031 nM
CC[C@H](C)[C@H](NC(=O)[C@@H]1CCCN1C(=O)CNC(=O)[C@H](CC(C)C)NC(=O)[C@H](CC(N)=O)NC(=O)[C@H](CCCCNC(=O)COCCOCCNC(=O)COCCOCCNC(=O)CC[C@H](NC(=O)CCCCCCCCCCCCCCCCCCC(=O)O)C(=O)O)NC(=O)[C@H](CO)NC(=O)[C@H](CO)NC(=O)[C@H](Cc1c[nH]cn1)NC(=O)[C@H](CCCNC(=N)N)NC(=O)[C@H](CC(C)C)NC(=O)[C@H](Cc1ccccc1)NC(=O)[C@H](CC(=O)O)NC(=O)[C@H](C)NC(=O)[C@H](CC(C)C)NC(=O)[C@H](CCCNC(=N)N)NC(=O)[C@H](CCC(N)=O)NC(=O)[C@@H](NC(=O)[C@H](C)NC(=O)[C@@H]1CSSC[C@H](NC(=O)[C@@H](N)CCCNC(=N)N)C(=O)N[C@@H](CC(N)=O)C(=O)N[C@@H]([C@@H](C)O)C(=O)N[C@@H](C)C(=O)N[C@@H]([C@@H](C)O)C(=O)N1)[C@@H](C)O)C(=O)N[C@@H](CC(C)C)C(=O)N1CCC[C@H]1C(=O)N1CCC[C@H]1C(=O)N[C@H](C(=O)N[C@@H](CC(N)=O)C(=O)N[C@H](C(=O)NCC(=O)N[C@@H](CO)C(=O)N[C@@H](CC(N)=O)C(=O)N[C@H](C(=O)N1C[C@H](O)C[C@H]1C(N)=O)[C@@H](C)O)C(C)C)[C@@H](C)O [PD091] (H-RCNTATCATQRLADFLRHSSK([AEEA-AEEA-γGlu-C20 diacid])NLGPILPPTNVGSNT[Hyp]-NH2; disulfide 2-7) | 0.03 nM
CC[C@H](C)[C@H](NC(=O)[C@@H]1CCCN1C(=O)CNC(=O)[C@H](CC(C)C)NC(=O)[C@H](CC(N)=O)NC(=O)[C@H](CCCCNC(=O)CC[C@H](NC(=O)CCCCCCCCCCCCCCCCC(=O)O)C(=O)O)NC(=O)[C@H](CO)NC(=O)[C@H](CO)NC(=O)[C@H](Cc1c[nH]cn1)NC(=O)[C@H](CCCNC(=N)N)NC(=O)[C@H](CC(C)C)NC(=O)[C@H](Cc1ccccc1)NC(=O)[C@H](CC(=O)O)NC(=O)[C@H](C)NC(=O)[C@H](CC(C)C)NC(=O)[C@H](CCCNC(=N)N)NC(=O)[C@H](CCC(N)=O)NC(=O)[C@@H](NC(=O)[C@H](C)NC(=O)[C@@H]1CSSC[C@H](NC(=O)[C@@H](N)CCCNC(=N)N)C(=O)N[C@@H](CC(N)=O)C(=O)N[C@@H]([C@@H](C)O)C(=O)N[C@@H](C)C(=O)N[C@@H]([C@@H](C)O)C(=O)N1)[C@@H](C)O)C(=O)N[C@@H](CC(C)C)C(=O)N1CCC[C@H]1C(=O)N1CCC[C@H]1C(=O)N[C@H](C(=O)N[C@@H](CC(N)=O)C(=O)N[C@H](C(=O)NCC(=O)N[C@@H](CO)C(=O)N[C@@H](CC(N)=O)C(=O)N[C@H](C(=O)N1C[C@H](O)C[C@H]1C(N)=O)[C@@H](C)O)C(C)C)[C@@H](C)O [PD092] (H-RCNTATCATQRLADFLRHSSK([γGlu-C18 diacid])NLGPILPPTNVGSNT[Hyp]-NH2; disulfide 2-7) | 0.016 nM
CC[C@H](C)[C@H](NC(=O)[C@@H]1CCCN1C(=O)CNC(=O)[C@H](CC(C)C)NC(=O)[C@H](CC(N)=O)NC(=O)[C@H](CC(N)=O)NC(=O)[C@H](CCCCNC(=O)COCCOCCNC(=O)COCCOCCNC(=O)CC[C@H](NC(=O)CCCCCCCCCCCCCCCCCCC(=O)O)C(=O)O)NC(=O)[C@H](CO)NC(=O)[C@H](Cc1c[nH]cn1)NC(=O)[C@H](CCCNC(=N)N)NC(=O)[C@H](CC(C)C)NC(=O)[C@H](Cc1ccccc1)NC(=O)[C@H](CC(=O)O)NC(=O)[C@H](C)NC(=O)[C@H](CC(C)C)NC(=O)[C@H](CCCNC(=N)N)NC(=O)[C@H](CCC(N)=O)NC(=O)[C@@H](NC(=O)[C@H](C)NC(=O)[C@@H]1CSSC[C@H](NC(=O)[C@@H](N)CCCNC(=N)N)C(=O)N[C@@H](CC(N)=O)C(=O)N[C@@H]([C@@H](C)O)C(=O)N[C@@H](C)C(=O)N[C@@H]([C@@H](C)O)C(=O)N1)[C@@H](C)O)C(=O)N[C@@H](CC(C)C)C(=O)N1CCC[C@H]1C(=O)N1CCC[C@H]1C(=O)N[C@H](C(=O)N[C@@H](CC(N)=O)C(=O)N[C@H](C(=O)NCC(=O)N[C@@H](CO)C(=O)N[C@@H](CC(N)=O)C(=O)N[C@H](C(=O)N1C[C@H](O)C[C@H]1C(N)=O)[C@@H](C)O)C(C)C)[C@@H](C)O [PD095] (H-RCNTATCATQRLADFLRHSK([AEEA-AEEA-γGlu-C20 diacid])NNLGPILPPTNVGSNT[Hyp]-NH2; disulfide 2-7) | 0.047 nM
